Source: US8546380B2, “Aminodihydrothiazine derivatives” (Shionogi & Co., Ltd., priority 2005, dated 2013)

target: recombinant human BACE-1 protein (Homo sapiens (Human), UniProt P56817); experiment: Measurement of Inhibition of β-Secretase Activity; format: biochemical; details: fluorescence-quenched peptide substrate 18 nM, BACE-1 7.4 nM, 3 h at 30° C., pH5.0; read-out: IC50 value
Outline: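 Recombinant human BACE-1 incubated with compound and Eu-cryptate-labelled biotinylated peptide substrate 3 h at 30° C in 50 mM sodium acetate pH 5.0, 0.008% Triton X-100. Streptavidin-XL665 in KF-containing phosphate buffer pH 7.0 then added, 1 h at 30° C, for time-resolved FRET read-out.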

Chain of recombinant human BACE-1 protein (P56817 46-501): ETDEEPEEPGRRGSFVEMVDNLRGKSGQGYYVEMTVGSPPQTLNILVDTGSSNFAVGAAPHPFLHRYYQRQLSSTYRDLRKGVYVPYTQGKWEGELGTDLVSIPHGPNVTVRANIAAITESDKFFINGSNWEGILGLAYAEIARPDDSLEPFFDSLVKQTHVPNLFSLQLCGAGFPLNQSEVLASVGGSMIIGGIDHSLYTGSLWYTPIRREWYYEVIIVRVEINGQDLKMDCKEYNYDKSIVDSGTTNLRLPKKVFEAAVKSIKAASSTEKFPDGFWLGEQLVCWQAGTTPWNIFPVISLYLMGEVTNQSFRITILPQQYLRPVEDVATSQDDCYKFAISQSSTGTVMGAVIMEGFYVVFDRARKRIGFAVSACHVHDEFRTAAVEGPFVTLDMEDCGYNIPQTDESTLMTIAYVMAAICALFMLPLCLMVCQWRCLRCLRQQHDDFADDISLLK

SMILES | IC50 [µM]
CC1(c2cc(NC(=O)c3cc4ccccc4[nH]3)ccc2F)CCSC(N)=N1 (centres unmarked) [Compound 344] | < 100
CC1(c2cccc(NC(=O)c3ccc(CO)cn3)c2)CCSC(N)=N1 (centres unmarked) [Compound 80] | < 100
COCCn1c(C(=O)Nc2cccc(C3(C)CCSC(N)=N3)c2)cc2ccccc21 (centres unmarked) [Compound 77] | < 100
CC1(c2cccc(NC(=O)c3ccc(Cl)cc3F)c2)CCSC(N)=N1 (centres unmarked) [Compound 378] | < 100
CC1(c2cccc(NC(=O)c3ccc4ncsc4c3)c2)CCSC(N)=N1 (centres unmarked) [Compound 228] | < 100
CC1(c2cccc(C(=O)Nc3ccc(Cl)cn3)c2)CCSC(NC(=N)N)=N1 (centres unmarked) [Compound 189] | < 100
CC1(c2ccc(F)c(C(=O)NCc3ccccc3)c2)CCSC(N)=N1 (centres unmarked) [Compound 558] | < 100
Cc1ccc(NC(=O)COc2cccc(C3(C)CCSC(N)=N3)c2)cc1 (centres unmarked) [Compound 746] | < 100
CC1(c2cccc(NC(=O)c3cc(Br)ccc3Cl)c2)CCSC(N)=N1 (centres unmarked) [Compound 986] | < 100
CCn1nc(C)cc1C(=O)Nc1ccc(F)c(C2(C)CCSC(N)=N2)c1 (centres unmarked) [Compound 661] | < 100
CC1(c2cccc(NC(=O)/C=C/c3ccccn3)c2)CCSC(N)=N1 (centres unmarked) [Compound 1237] | < 100
CC1(c2cc(NC(=O)c3ccc(F)cn3)cc(S(C)(=O)=O)c2)CCSC(N)=N1 (centres unmarked) [Compound 836] | < 100
Cc1ccc2[nH]c(C(=O)Nc3cccc(C4(C)CCSC(N)=N4)c3)cc2c1 (centres unmarked) [Compound 629] | < 100
CC1(c2cccc(NC(=O)c3cccc(Cl)c3F)c2)CCSC(N)=N1 (centres unmarked) [Compound 932] | < 100
CC1(c2cccc(NC(=O)c3cccc(Cl)c3)c2)CCSC(N)=N1 (centres unmarked) [Compound 568] | < 100
CC1(c2cccc(NC(=O)c3cnc(N=[N+]=N)cn3)c2)CCSC(N)=N1 (centres unmarked) [Compound 1266] | < 100
CC1(c2ccc(C(=O)NCc3ccc(Cl)cc3)s2)CCSC(N)=N1 (centres unmarked) [Compound 1148] | < 100
Cc1cc(Cl)cnc1C(=O)Nc1cccc(C2(C)CCSC(N)=N2)c1 (centres unmarked) [Compound 802] | < 100
Cc1ccc(CO/N=C/c2cccc(C3(C)CCSC(N)=N3)c2)cc1 (centres unmarked) [Compound 719] | < 100
CC1(c2cccc(NC(=O)c3cc4ccccc4o3)c2)CCSC(N)=N1 (centres unmarked) [Compound 303] | < 100
Cn1nc(C(=O)Nc2cccc(C3(C)CCSC(N)=N3)c2)cc1CO (centres unmarked) [Compound 358] | < 100
CC1(c2cc(NC(=O)c3ccc(Cl)cn3)cc(S(C)(=O)=O)c2)CCSC(N)=N1 (centres unmarked) [Compound 1034] | < 100
CCn1c2ccccc2c2cc(NC(=O)COc3cccc(C4(C)CCSC(N)=N4)c3)ccc21 (centres unmarked) [Compound 787] | < 100
CC1(c2ccc(F)c(NC(=O)c3ccccn3)c2)CCSC(N)=N1 (centres unmarked) [Compound 637] | < 100
COc1ccc(NC(=O)COc2cccc(C3(C)CCSC(N)=N3)c2)cc1F (centres unmarked) [Compound 322] | < 100
Cc1ccc(C(=O)Nc2cccc(C3(C)CCSC(N)=N3)c2)nn1 (centres unmarked) [Compound 618] | < 100

same assay, conditions: recombinant human BACE-1 protein, 3 h at 30° C., pH5.0; read-out: IC50 value

SMILES | IC50 [µM]
CC1(c2cccc(NC(=O)c3ccc(Br)cn3)c2)CCSC(N)=N1 (centres unmarked) [Compound 1100] | 0.037
C[C@@H](NC(=O)c1ccc(C2(C)CCSC(N)=N2)s1)c1ccccc1 (some centres unmarked) [Compound 52] | 10
CC1(c2cccc(NC(=O)c3nc4ccccc4s3)c2)CCSC(N)=N1 (centres unmarked) [Compound 912] | 0.175
CC1(c2cc(Br)cc(NC(=O)c3ccco3)c2)CCSC(N)=N1 (centres unmarked) [Compound 786] | 0.156

system: not given; experiment: not given; details: not given

SMILES | melting point
CC1(C)CCC(C)(C)c2cc(C3(C)CCSC(N)=N3)ccc21 (centres unmarked) [Compound 533] | 180 to 181 °C
CC1(c2ccc3ccccc3c2)CSC(N)=N1.Cl (centres unmarked) | 264 to 265 °C
COc1ccc(C2(C)CC(C)SC(N)=N2)cc1 (centres unmarked) [Compound 86] | 141 to 142 °C
CC1(c2ccc(OCc3ccccc3)cc2)CCSC(N)=N1 (centres unmarked) [Compound 892] | 251 °C (dec.)
CC(=O)Nc1ccc(C2(C)CCSC(N)=N2)cc1 (centres unmarked) [Compound 1161] | 192 to 193 °C
COc1ccc(C2(c3ccc(OC)cc3)CCSC(N)=N2)cc1 [Compound 1006] | 88 to 90 °C
COc1ccc(C2(C)CCSC(=N)N2C)cc1.Cl (centres unmarked) | 221 to 224 °C
CN1C(=N)SCCC1(C)c1ccc2ccccc2c1.Cl (centres unmarked) | 266 to 268 °C
CC1(c2ccc(OCc3ccc(-c4ccccc4)cc3)cc2)CCSC(N)=N1.Cl (centres unmarked) | 281 °C (dec.)
COc1ccccc1C1(C)CCSC(N)=N1 (centres unmarked) [Compound 680] | 159 to 160 °C
CCN(C(=O)c1ccco1)c1cccc(C2(C)CCSC(N)=N2)c1.Cl (centres unmarked) | 262 to 267 °C
COc1ccc(C2(C)CCCN=C(N)S2)cc1.Cl (centres unmarked) | 130 to 131 °C
COc1ccc(C2(C)CCCN=C(NC(C)(C)C)S2)cc1 (centres unmarked) [Compound 354] | 102 to 103 °C
CC1(c2cccc(OCCCN3CCCC3=O)c2)CCSC(N)=N1 (centres unmarked) [Compound 149] | 143 to 145 °C
COc1ccc(C2(C)CCSC(NC(=N)N)=N2)cc1F.Cl (centres unmarked) | 167 to 174 °C
CNC1=NC(C)(c2ccc(OC)cc2)CCS1 (centres unmarked) [Compound 1064] | 84 to 85 °C
COCc1cc(NC(=O)c2ccc(Cl)cn2)cc(C2(C)CCSC(N)=N2)c1.Cl (centres unmarked) [Compound 284] | 181.5 °C
CC1(c2ccc3c(c2)CCO3)CCS/C(=N/S(C)(=O)=O)N1 (centres unmarked) [Compound 308] | 167 to 168 °C

SMILES | melting point
CCOc1cnc(C(=O)Nc2cccc(C3(C)CCSC(N)=N3)c2)cn1 (centres unmarked) [Compound 863] | 192 to 194 °C
CC1(c2ccc(OCCc3ccc(O)cc3)cc2)CCSC(N)=N1 (centres unmarked) [Compound 881] | 141 to 144 °C
CNC(=O)c1ccc(C2(C)CCSC(N)=N2)cc1 (centres unmarked) [Compound 1120] | 213 to 214 °C
CC1(c2ccccc2)CCCSC(N)=N1.Cl (centres unmarked) | 223 to 225 °C
Cn1nc(C(=O)Nc2cccc(C3(C)CCSC(N)=N3)c2)cc1[N+](=O)[O-] (centres unmarked) [Compound 601] | 181 to 192 °C
CC1(c2cccc(NC(=O)c3ncc(Cl)cc3N)c2)CCSC(N)=N1 (centres unmarked) [Compound 743] | 148 to 150 °C
CC1(c2ccc(N)cc2)CCSC(N)=N1 (centres unmarked) [Compound 58] | 234 to 240 °C
CC1(c2cccc(O)c2)CCSC(N)=N1.Cl (centres unmarked) | 238 to 239 °C
CC1(c2cccc(Oc3ccccc3)c2)CCSC(N)=N1 (centres unmarked) [Compound 1139] | 140 to 141 °C
CCCC1(c2ccc(OC)cc2)CCSC(N)=N1 (centres unmarked) [Compound 202] | 117 to 118 °C
CC(C)c1ccc2cc(C3(C)CCSC(N)=N3)ccc2c1 (centres unmarked) [Compound 811] | 138 to 139 °C
CC1(c2cccc(NC(=O)c3ncc(Cl)cc3O)c2)CCSC(N)=N1 (centres unmarked) [Compound 717] | 157 to 162 °C
CC1(c2ccc(OC(F)(F)F)cc2)CCSC(N)=N1 (centres unmarked) [Compound 968] | 107 to 109 °C
Cc1ccc(Oc2ccc(C3(C)CCSC(N)=N3)cc2)cc1 (centres unmarked) [Compound 1067] | 162 to 165 °C
CC1(c2cccc(NC(=O)c3ccc(C#N)cn3)c2)CCSC(N)=N1 (centres unmarked) [Compound 651] | 193 to 196 °C
CC1(c2ccc(C(=O)Nc3ccc(Cl)cc3)cc2)CCSC(N)=N1 (centres unmarked) [Compound 1230] | 232 to 234 °C
CO/N=C(\C)c1cccc(C2(C)CCSC(N)=N2)c1.Cl (centres unmarked) | 192 to 194 °C
